Test results taken from patent publication EP0973746B1, “SUBSTITUTED 3-CYANO QUINOLINES” (Wyeth Holdings Corporation, priority 1997, dated 1998).
pIC50: −log10 of the molar value. ≈ marks a conversion by molar mass, not a printed value. Where two headings read alike, the source gives them in different places.

What was measured:
A431 = assay: Inhibition of cancer cell growth as measured by cell number, A431; format: cell-based, human; details: Homo sapiens, A-431, 48 h, Table 8;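 further: human A431 line, picked because it overexpresses epidermal growth factor receptor (EGFR)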
Description: (§1) The cell lines were chosen since they overexpressed epidermal growth factor receptor (EGFR) (i.e. A431) or HER2/neu (SKBR3), or had little to no expression of the these receptors (SW620, LOX, MCF7).

SW620 = assay: Inhibition of cancer cell growth as measured by cell number, SW620; format: cell-based, human; details: Homo sapiens, SW-620, 48 h, Table 8;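 further: SW620 was included as a cell line with little or no EGFR or HER2/neu expression, in contrast to receptor-overexpressing lines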
Description: as §1

SKBR3 = assay: Inhibition of cancer cell growth as measured by cell number, SKBR3; format: cell-based, human; details: Homo sapiens, Table 8;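 further: SK-BR-3 cells were selected as a line overexpressing HER2/neu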
Description: as §1

[1] = target: recombinant human MEK 1 (MAPKK) and recombinant human ERK2 (MAPK); assay: Mitogen Activated Protein Kinase (MAPK) assay, two component coupled MEK 1 / ERK2; format: biochemical; details: separate entries for the same compound = evaluated more than one time;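 further: MEK 1-activated ERK2 phosphorylates MBP or Myc peptide with 33P-ATP, filter capture and scintillation counting, inhibitor preincubated with ERK2 30 min at 0 °C, inhibition relative to uninhibited control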
LOX = assay: Inhibition of cancer cell growth as measured by cell number, LOX; format: cell-based, human; details: Homo sapiens, LOX, 48 h, Table 8;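 further: LOX cells served as a line with low or absent EGFR and HER2/neu expression, in contrast to receptor-overexpressing lines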
Description: as §1

MCF7 = assay: Inhibition of cancer cell growth as measured by cell number, MCF7; format: cell-based, human; details: Homo sapiens, MCF7, 48 h, Table 8;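 further: MCF7 was included as a line with little or no EGFR or HER2/neu expression, in contrast to the receptor-overexpressing lines of the panel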
Description: as §1

[2] = target: T1, His-tagged cytoplasmic domain of EGFR (Homo sapiens, UniProt P00533); assay: Inhibition of Epidermal Growth Factor Receptor Kinase (EGF-R) using recombinant enzyme; format: biochemical; details: recombinant enzyme; RR-SRC peptide; average of the number of tests; read-out: IC50;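 further: radiometric kinase assay measuring radiolabeled phosphate transfer from ATP onto the peptide tyrosine by scintillation counting, control is reaction without compound, background subtracted, IC50 from dose-response curve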
T1 construct: containing the EGFR cDNA encoding amino acids 645 - 1186 preceded by Met-Ala-(His)6; made in house; host or cells: Sf9 cells, recombinant baculovirus vHcEGFR52
T1 sequence (P00533 669-1210): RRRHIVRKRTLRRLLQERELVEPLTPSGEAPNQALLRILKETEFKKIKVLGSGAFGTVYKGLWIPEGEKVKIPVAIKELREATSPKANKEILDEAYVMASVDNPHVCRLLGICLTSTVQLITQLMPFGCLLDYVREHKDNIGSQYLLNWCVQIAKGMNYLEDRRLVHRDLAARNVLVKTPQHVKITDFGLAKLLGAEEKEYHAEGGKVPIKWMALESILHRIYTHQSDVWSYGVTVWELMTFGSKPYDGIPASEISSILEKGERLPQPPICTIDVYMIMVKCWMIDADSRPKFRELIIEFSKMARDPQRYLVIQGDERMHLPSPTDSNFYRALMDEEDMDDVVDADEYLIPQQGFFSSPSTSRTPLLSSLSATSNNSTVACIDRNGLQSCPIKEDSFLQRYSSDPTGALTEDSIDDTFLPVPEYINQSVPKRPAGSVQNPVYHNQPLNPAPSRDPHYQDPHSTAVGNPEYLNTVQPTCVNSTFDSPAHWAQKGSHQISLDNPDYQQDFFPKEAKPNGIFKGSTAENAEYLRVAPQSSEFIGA
Protocol: The enzyme used in this assay is the His-tagged cytoplasmic domain of EGFR.
Compounds to be evaluated were made into 10 mg/mL stock solutions in 100% dimethylsulfoxide (DMSO). Prior to experiment, stock solutions were diluted to 500 µM with 100% DMSO and then serially diluted to the desired concentration with HEPES buffer (30 mM HEPES pH 7.4).
For the enzyme reaction, 10 µL of each inhibitor (at various concentrations) were added to each well of a 96-well plate. […] This was allowed to sit for 10 min on ice and was followed by the addition of 5 µl peptide (80 µM final conc.), 10µl of 4X Buffer (Table A), 0.25 µL ^33P-ATP and 12 µL H2O. The reaction was allowed to run for 90 min at room temperature and was followed by spotting the entire volume on to precut P81 filter papers. The filter discs were washed 2X with 0.5% phosphoric acid and radioactivity was measured using a liquid scintillation counter.
The % inhibition of the test compound was determined for at least three different concentrations and the IC50 value was evaluated from the dose response curve. […] CPM(control) is in units of counts per minute and was a number expressing the amount of radiolabeled ATP (g-33P) incorporated into the RR-SRC peptide substrate by the enzyme after 90 minutes at room temperature in the absence of test compound as measured by liquid scintillation counting. The CPM values were corrected for the background counts produced by ATP in the absence of the enzymatic reaction. The IC50 values reported in TABLE 2 are averages of the number of tests conducted.

[3] = read-out: IC50 A431, cell number, Sulforhodamine B, 48 hours exposure
[4] = read-out: IC50 SW620, cell number, Sulforhodamine B, 48 hours exposure
[5] = SK-BR-3, 48 h, read-out: IC50 SKBR3, cell number, Sulforhodamine B, 48 hours exposure
[6] = read-out: IC50 LOX, cell number, Sulforhodamine B, 48 hours exposure
[7] = read-out: IC50 MCF7, cell number, Sulforhodamine B, 48 hours exposure
[8] = cell number, Sulforhodamine B, 48 hours exposure, read-out: IC50 A431
[9] = cell number, Sulforhodamine B, 48 hours exposure, read-out: IC50 SW620
[10] = SK-BR-3, cell number, Sulforhodamine B, 48 hours exposure, read-out: IC50 SKBR3
[11] = cell number, Sulforhodamine B, 48 hours exposure, read-out: IC50 LOX
[12] = cell number, Sulforhodamine B, 48 hours exposure, read-out: IC50 MCF7

Row | pIC50 [1] | IC50 (A431; [8]) [µg/mL] | IC50 (SW620; [9]) [µg/mL] | IC50 (SKBR3; [10]) [µg/mL] | IC50 (LOX; [11]) [µg/mL] | IC50 (MCF7; [12]) [µg/mL] | SMILES | IC50 (A431; [3]) [µg/mL] | IC50 (SW620; [4]) [µg/mL] | IC50 (SKBR3; [5]) [µg/mL] | IC50 (LOX; [6]) [µg/mL] | IC50 (MCF7; [7]) [µg/mL] | pIC50 [2]
1 |  |  |  |  |  |  | C=C(CC(=O)Nc1ccc2ncc(C#N)c(Nc3cccc(Br)c3)c2c1)C(=O)O [Example 186, 4-[[4-[(3-Bromophenyl)amino]-3-cyano-6-quinolinyl]-amino]-2-methylene-4-oxo-butanoic acid] | 37.6 (≈ 83.3 µM) | 62.6 (≈ 139 µM) | 21.5 (≈ 47.6 µM) | 46.4 (≈ 103 µM) | 42.5 (≈ 94.2 µM) | 7.00
2 |  |  |  |  |  |  | CCOc1cc2ncc(C#N)c(Nc3ccc(Sc4ccccc4)c(Cl)c3)c2cc1OCC [Example 254, 4-[3-Chloro-4-(phenylthio)phenylamino]-6,7-diethoxy-3-quinolinecarbonitrile] | 0.07 (≈ 0.147 µM) | 0.03 (≈ 0.063 µM) | 0.01 (≈ 0.021 µM) | 0.07 (≈ 0.147 µM) | 0.07 (≈ 0.147 µM) | 
3 |  |  |  |  |  |  | COc1cc2ncc(C#N)c(Nc3ccc(Sc4ccccc4)c(Cl)c3)c2cc1OC [Example 255, 4-[3-Chloro-4-(phenylthio)phenylamino]-6,7-dimethoxy-3-quinolinecarbonitrile] | 0.59 (≈ 1.32 µM) | 0.58 (≈ 1.29 µM) | 0.35 (≈ 0.781 µM) | 0.69 (≈ 1.54 µM) | 2.85 (≈ 6.36 µM) | 7.00
4 | 4.10 | 6.9 (≈ 19.6 µM) | 5.79 (≈ 16.5 µM) | 7.5 (≈ 21.3 µM) | 5.66 (≈ 16.1 µM) | 8.44 (≈ 24 µM) | CCOc1cc2ncc(C#N)c(Nc3cccc(F)c3)c2cc1OCC [Example 263, 4-(3-Fluorophenylamino)-6,7-diethoxy-3-quinolinecarbonitrile] |  |  |  |  |  | 
5 | < 4.00 | 0.19 (≈ 0.387 µM) | 0.15 (≈ 0.306 µM) | 0.02 (≈ 0.0408 µM) | 0.33 (≈ 0.673 µM) | 0.78 (≈ 1.59 µM) | N#Cc1cnc2ccc(NC(=O)C#CCN3CCOCC3)cc2c1Nc1cccc(Br)c1 [Example 328, N-[4-[(3-Bromophenyl)amino]-3-cyano-6-quinolinyl]-4-morpholino-2-butynamide] |  |  |  |  |  | 8.35
6 | < 4.00 | 0.22 (≈ 0.491 µM) | 0.03 (≈ 0.0669 µM) | 0.21 (≈ 0.468 µM) | 0.58 (≈ 1.29 µM) | 0.75 (≈ 1.67 µM) | CN(C)CC#CC(=O)Nc1ccc2ncc(C#N)c(Nc3cccc(Br)c3)c2c1 [Example 329, N-[4-[(3-Bromophenyl)amino]-3-cyano-6-quinolinyl]-4-dimethylamino-2-butynamide] |  |  |  |  |  | 9.35
7 | < 4.00 | 0.34 (≈ 0.951 µM) | 5.23 (≈ 14.6 µM) | 0.4 (≈ 1.12 µM) | 0.1 (≈ 0.28 µM) | 6.53 (≈ 18.3 µM) | C=CC(=O)Nc1ccc2ncc(C#N)c(Nc3cccc(N(C)C)c3)c2c1 [Example 391, N-[3-Cyano-4-(3-dimethylaminophenylamino)quinolin-6-yl]acrylamide] |  |  |  |  |  | 
8 | 4.40 | 0.46 (≈ 1.29 µM) | 73.3 (≈ 205 µM) | 2.61 (≈ 7.3 µM) | 1.99 (≈ 5.57 µM) | 3.66 (≈ 10.2 µM) | C=CC(=O)Nc1ccc2ncc(C#N)c(Nc3ccc(N(C)C)cc3)c2c1 [Example 392, N-[3-Cyano-4-(4-dimethylaminophenylamino)quinolin-6-yl]acrylamide] |  |  |  |  |  | 
9 | 4.40 | 0.45 (≈ 1.22 µM) | 2.25 (≈ 6.09 µM) | 0.84 (≈ 2.27 µM) | 0.85 (≈ 2.3 µM) | 4 (≈ 10.8 µM) | CC#CC(=O)Nc1ccc2ncc(C#N)c(Nc3cccc(N(C)C)c3)c2c1 [Example 393, But-2-ynoic Acid [3-Cyano-4-(3-dimethylaminophenylamino)quinolin-6-yl]amide] |  |  |  |  |  | 

Row | SMILES | pIC50 [1] | IC50 (A431; [8]) [µg/mL] | IC50 (SW620; [9]) [µg/mL] | IC50 (SKBR3; [10]) [µg/mL] | IC50 (LOX; [11]) [µg/mL] | IC50 (MCF7; [12]) [µg/mL] | IC50 (A431; [3]) [µg/mL] | IC50 (SW620; [4]) [µg/mL] | IC50 (SKBR3; [5]) [µg/mL] | IC50 (LOX; [6]) [µg/mL] | IC50 (MCF7; [7]) [µg/mL] | pIC50 [2]
10 | C#Cc1cccc(Nc2c(C#N)cnc3ccc(N)cc23)c1 [Example 167, 6-Amino-4-[(3-ethynylphenyl)amino]-3-quinolinecarbonitrile] | < 4.00 |  |  |  |  |  | 2.6 (≈ 9.14 µM) | 8.1 (≈ 28.5 µM) | 3.7 (≈ 13 µM) | 5.3 (≈ 18.6 µM) | 8.5 (≈ 29.9 µM) | 
11 | C#Cc1cccc(Nc2c(C#N)cnc3ccc([N+](=O)[O-])cc23)c1 [Example 168, 4-[(3-Ethynylphenyl)amino]-6-nitro-3-quinolinecarbonitrile] | 4.10 |  |  |  |  |  | 1.57 (≈ 5 µM) | 9.1 (≈ 29 µM) | 1.38 (≈ 4.39 µM) | 1.76 (≈ 5.6 µM) | 5.94 (≈ 18.9 µM) | 
12 | CCOc1cc2ncc(C#N)c(Nc3ccc(F)cc3)c2cc1OCC [Example 260, 4-(4-fluorophenylamino)-6,7-diethoxy-3-quinolinecarbonitrile] | 4.26 |  |  |  |  |  | 0.06 (≈ 0.171 µM) | 0.32 (≈ 0.911 µM) | 0.08 (≈ 0.228 µM) | 0.26 (≈ 0.74 µM) | 9.98 (≈ 28.4 µM) | 
13 | CC(C)(C)[Si](C)(C)OCC#CC(=O)Nc1ccc2ncc(C#N)c(Nc3cccc(Br)c3)c2c1 [Example 331, N-[4-[(3-Bromophenyl)amino]-3-cyano-6-quinolinyl]-4-t-butyldimethylsiloxy-2-butynamide] |  | 0.03 (≈ 0.056 µM) | 0.04 (≈ 0.0747 µM) | 0.16 (≈ 0.299 µM) | 0.04 (≈ 0.0747 µM) | 0.44 (≈ 0.822 µM) |  |  |  |  |  | 
